Experimental data taken from patent US12486242B2, “Long-acting low-addiction HNK derivative and preparation method therefor” (SHENZHEN RUIJIAN BIOTECHNOLOGY CO., LTD, priority 2020, dated 2025).
Entries after “also recorded” stand apart in the source; their conditions may differ. Where a name gives a salt, the structure may show the parent alone.

How the values were obtained:
mice [1] = test: Forced swimming test (FST), immobility time; assay type: in vivo; settings: for antidepressant effect (immobility time): intragastric administration, mice; for antidepressant effect: dose not given; for course of efficacy within 7 days / effect on the 7th day: intragastric; for course of efficacy within 7 days: 1 hour to 7 days
Protocol: One hour before the forced swimming test (FST), the mice were transferred to the laboratory. The test was conducted under normal light condition and monitored by a digital camera. During the test, the mice were individually placed in transparent glass cylinders (28.5 cm in height, 14 cm in diameter) filled with 20 cm height of water (23±1° C.). On the first day, the mice were trained for 6 minutes and then removed from the cylinder. On the second day, the mice were administered saline, HNK, Compound 16, Compound C, and Compound D, and after different time periods, their immobility time was tested. During the last 4 minutes of the entire 6-minute swimming test, the static time was recorded through EthoVision XT (Noldus, Netherlands) of Noldus system. The static time was defined as passive floating, that is there was no other movement except the movements necessary to keep the animal's head above the water. After every two to three tests, the water in the cylinders was replaced. After the swimming test, the mice were removed from the water and dried under an infrared lamp.
The mice were given 1 mg (A), 10 mg (B) and 30 mg (C) of HNK and Compund I6 by intragastric administration, respectively, and their immobility time was measured after 1 hour and 7 days. The percentage of immobility time is expressed as mean±SEM. *p<0.05, **p<0.01, compared to base test. Mice of each group was N=8. Saline: saline group; I6: Compound I6 treatment group; HNK: 2R,6R-hydroxynorketamine treatment group.

mice [2] = test: Behavioral sensitization experiment (spontaneous activity measurement); assay type: in vivo, C57BL/6J mice; settings: doses 5 mg, 10 mg, 30 mg, intragastric, d1, d7, d15
Protocol: (§1) Animals: Male C57BL/6J mice of 8-12 weeks old were randomly divided into groups, 10 mice in each group, with body weight of 18-22 g, fed at room temperature (22±1° C.), under humidity of (50±10)%, illumination time from 8:00 to20:00. The mice had free access to food and water, and adapted to the experimental environment for at least 2-3 days before the experiments. All experiments were conducted from 8:00 to 16:00.
1.1 Small animal spontaneous activity measurement: An animal spontaneous activity infrared analysis system consists of a spontaneous activity box, an infrared probe device and a data acquisition system. The size of the spontaneous activity box is 40 cm×40 cm×65 cm, with sound isolation and light isolation, and mounted with a ventilation device. The activity statuses of the animals were recorded by the infrared probe, and the numbers of spontaneous activities of the animals were calculated. In order to test the effect of drugs on spontaneous activities of mice, the mice were randomly divided into 4 groups with 10 mice in each group. The Groups included: vehicle, I6, C, D (5.0, 10.0, 30.0 mg/kg), mor (10 mg/kg). The mice were administrated intragastrically once a day in the morning for 7 consecutive days; after that, the drugs withdrew for 7 days (without any treatment). On the 15th day, mice in each group were given Veh and the drugs (5.0, 10.0, 30.0 mg/kg) by intragastric administration to stimulate. Spontaneous activity of the mice within 1 hour was measured immediately after administration at d1, d7 and d15.
Statistical analysis: Experimental data were expressed as X±SEM. Graphpad software was used for statistical analysis, and t-test was used for comparison between two groups. One-way ANOVA analysis was used for comparison among multiple groups, and then LSD method was used for pairwise comparison.

mice [3] = test: Position preference (CPP) experiment, three-room system; assay type: in vivo, C57BL/6J mice; settings: doses 5 mg, 10 mg, 30 mg, intragastric, 6 days training, residence time in white box within 15 min
Protocol: as §1
1.2 CPP experiment: A three-room CPP system includes black and white boxes (25 cm×25 cm×30 cm) at left and right sides, separated by a middle box (10 cm×25 cm×30 cm). During the experiment, mice were put into the middle box and could freely move to the black and white boxes. A door with the size of 5 cm×5 cm was arranged between the middle box and each of the black and white boxes. The experiment adopted a biased procedure, which had three stages of pre-test, training, and test stages. During the whole experiment, the environmental conditions such as light, color and smell in the boxes were guaranteed to be consistent.
Pre-test stage: On days 1-3, the spacer plates between the boxes were removed, and all mice were put into the middle box after being injected with saline subcutaneously, allowing them to move freely in the boxes for 15 min, once a day for 3 consecutive days. The residence time of the mice in the black and white boxes was respectively recorded to determine the natural preference of the mice. The mice were trained with the non-natural preference box as the companion medicine box. […]
Test stage: on day 10, the spacer plates were removed, and the mice were put into the middle box allowing to move freely. At the same time, the residence time of the mice in the white box within 15 min were recorded.
Position preference was tested by a three-room system. […] After continuous training for 6 days, the test was carried out, and the residence times of the mice within 15 min in the white box were recorded. […]

[4] = Applicant's experimental studies on HNK (efficacy duration, addiction); settings: in vivo
NMDA receptor = settings: cited from earlier work
patients = settings: within 72 hours after a single intravenous injection, 0.5 mg/kg; cited from earlier work

Structure (SMILES)	antidepressant effect (immobility time) (mice [1]; 30 mg)	antidepressant effect (mice [1])	behavioral sensitization effect on mice (mice [2])	position preference effect on mice (mice [3])	antidepressant effect (immobility time) (mice [1]; 1 mg)	antidepressant effect (immobility time) (mice [1]; 10 mg)	course of efficacy within 7 days (mice [1]; 10 mg)	course of efficacy within 7 days (mice [1]; 30 mg)	also measured
CN[C@@]1(c2ccccc2Cl)CCC[C@@H](OC(=O)c2ccccc2)C1=O [Compound C]	no antidepressant effect	no antidepressant effect	behavioral sensitizing effect; also recorded: behavioral sensitization effect	induced position preference					
N[C@]1(c2ccccc2Cl)CCC[C@H](OC(=O)c2ccc(CN3CCOCC3)cc2)C1=O [Compound D]	no antidepressant effect	no antidepressant effect	behavioral sensitizing effect; also recorded: behavioral sensitization effect	induced position preference					
N[C@@]1(c2ccccc2Cl)CCC[C@@H](OC(=O)c2ccoc2)C1=O [Compound I6, (2R,6R)-6-(3-furan)formyloxynorketamine hydrochloride salt]	antidepressant effect				no antidepressant effect	antidepressant effect	substantially did not decrease	substantially did not decrease	difference between the 10 mg and 30 mg treatment groups (mice [1]; 10 mg vs 30 mg): no significant difference; immobility time during forced swimming (mice [1]; compared with the HNK-treated group): less immobility time; antidepressant effect at the 7th day after administration (mice [1]; compared with the HNK-treated group, dose not stated): significant antidepressant effect; behavioral sensitization effect on mice (mice [2]; hydrochloride salt): no behavioral sensitization effect; also recorded: non-sensitization effect; position preference effect on mice (mice [3]; hydrochloride salt): no position preference effect; also recorded: non-position preference effect
N[C@@]1(c2ccccc2Cl)CCC[C@@H](O)C1=O [HNK, (2R,6R)-6-hydroxydemethylketamine, reference compound]	antidepressant effect				no antidepressant effect	antidepressant effect	decreased rapidly	decayed rapidly	effect on the 7th day (mice [1]; 10 mg): substantially had no effect; effect on the 7th day (mice [1]; 30 mg): substantially had no effect; addiction [4]: a certain degree of addiction; duration of efficacy after administration [4]: basically lost activity within one week; activity to NMDA receptor (NMDA receptor): no activity
CNC1(c2ccccc2Cl)CCCCC1=O (centres unmarked) [ketamine]									patients with Hamilton Depression Scale score decreased by 50% or more (patients): more than 50%
